{
  "source": "ChEMBL document CHEMBL1201862",
  "about": "“PubChem BioAssay data set” (2004)",
  "key": {"[1]": {"tested_on": "H9c2", "assay": "cells", "type": "functional, cell-based", "conditions": "Rattus norvegicus, H9c2, Myocardium"}, "[2]": {"tested_on": "HEK293", "assay": "EBV LMP1 TES2 canonical NF-kB signalling blockers – cell-based, HEK293, luciferase, cherry-pick, dose response (AID 588343)", "type": "functional", "conditions": "Homo sapiens"}, "[3]": {"target": "T1, Endoribonuclease toxin MazF (Escherichia coli K-12, UniProt P0AE70)", "T1 sequence (P0AE70 whole entry)": "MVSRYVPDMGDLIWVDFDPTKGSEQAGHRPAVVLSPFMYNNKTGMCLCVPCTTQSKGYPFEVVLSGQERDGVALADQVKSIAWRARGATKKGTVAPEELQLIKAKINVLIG", "assay": "activation of MazEF endoribonuclease cleavage – biochemical, fluorescence, single-stranded RNA substrate, uHTS hits, dose response (AID 588481)", "type": "functional"}, "[4]": {"target": "T1, Endoribonuclease toxin MazF", "assay": "substrate-only fluorescence increase artefacts – biochemical, single-stranded RNase substrate, counter-screen for MazEF activator project, dose response (AID 588502)", "type": "functional"}, "[5]": {"assay": "nonselective StAR promoter luciferase inhibitors – cell-based, luminescence, luciferase reporter, counter-screen for LRH-1 inverse agonist project, dose response (AID 651969)", "type": "functional"}, "[6]": {"assay": "Luminescence Cell-Based Dose Confirmation HTS to Identify Inhibitors of Platelet Dense Granule Release. [Related pubchem assays: 1663 (Primary HTS), 1678 (Summary of Project)]", "type": "functional"}, "[7]": {"target": "Nuclear receptor subfamily 5 group A member 2 (Homo sapiens, UniProt O00482)", "sequence (O00482 whole entry)": "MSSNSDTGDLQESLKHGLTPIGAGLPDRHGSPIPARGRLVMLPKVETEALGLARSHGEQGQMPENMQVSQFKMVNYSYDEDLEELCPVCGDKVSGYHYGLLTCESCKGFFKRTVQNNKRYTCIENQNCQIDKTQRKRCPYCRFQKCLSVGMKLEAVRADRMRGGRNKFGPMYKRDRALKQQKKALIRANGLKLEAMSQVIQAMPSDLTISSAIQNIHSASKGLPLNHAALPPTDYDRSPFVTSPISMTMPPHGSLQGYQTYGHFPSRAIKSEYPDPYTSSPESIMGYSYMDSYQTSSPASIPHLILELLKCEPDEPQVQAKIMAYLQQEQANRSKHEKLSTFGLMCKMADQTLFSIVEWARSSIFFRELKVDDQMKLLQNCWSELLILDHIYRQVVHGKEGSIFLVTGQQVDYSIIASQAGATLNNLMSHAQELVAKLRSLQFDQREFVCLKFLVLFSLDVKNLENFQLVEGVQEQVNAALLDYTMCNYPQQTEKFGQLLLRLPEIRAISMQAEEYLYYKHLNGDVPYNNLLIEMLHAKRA", "type": "functional, cell-based"}, "[8]": {"target": "Steroidogenic factor 1 (Homo sapiens, UniProt Q13285)", "sequence (Q13285 whole entry)": "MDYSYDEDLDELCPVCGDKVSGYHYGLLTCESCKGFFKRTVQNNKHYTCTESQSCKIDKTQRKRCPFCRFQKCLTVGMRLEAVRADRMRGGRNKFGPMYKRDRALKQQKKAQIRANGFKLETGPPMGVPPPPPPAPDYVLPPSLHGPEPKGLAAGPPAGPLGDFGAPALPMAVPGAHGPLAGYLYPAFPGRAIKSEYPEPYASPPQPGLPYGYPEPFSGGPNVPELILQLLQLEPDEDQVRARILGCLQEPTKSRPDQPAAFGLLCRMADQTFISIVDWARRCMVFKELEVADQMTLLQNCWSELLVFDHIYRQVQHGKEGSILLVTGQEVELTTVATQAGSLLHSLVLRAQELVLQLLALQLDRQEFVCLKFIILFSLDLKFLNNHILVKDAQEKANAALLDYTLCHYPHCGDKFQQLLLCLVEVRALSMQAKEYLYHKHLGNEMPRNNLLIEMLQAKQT", "assay": "Counterscreen for inverse agonists of the liver receptor homolog-1 (LRH-1; NR5A2): Luminescence-based cell-based high throughput dose response assay to identify inverse agonists of the Steroidogenic Factor 1 Nuclear Receptor (SF1; NR5A1).", "type": "functional"}, "[9]": {"target": "Luciferin 4-monooxygenase (Photinus pyralis, UniProt P08659)", "sequence (P08659 whole entry)": "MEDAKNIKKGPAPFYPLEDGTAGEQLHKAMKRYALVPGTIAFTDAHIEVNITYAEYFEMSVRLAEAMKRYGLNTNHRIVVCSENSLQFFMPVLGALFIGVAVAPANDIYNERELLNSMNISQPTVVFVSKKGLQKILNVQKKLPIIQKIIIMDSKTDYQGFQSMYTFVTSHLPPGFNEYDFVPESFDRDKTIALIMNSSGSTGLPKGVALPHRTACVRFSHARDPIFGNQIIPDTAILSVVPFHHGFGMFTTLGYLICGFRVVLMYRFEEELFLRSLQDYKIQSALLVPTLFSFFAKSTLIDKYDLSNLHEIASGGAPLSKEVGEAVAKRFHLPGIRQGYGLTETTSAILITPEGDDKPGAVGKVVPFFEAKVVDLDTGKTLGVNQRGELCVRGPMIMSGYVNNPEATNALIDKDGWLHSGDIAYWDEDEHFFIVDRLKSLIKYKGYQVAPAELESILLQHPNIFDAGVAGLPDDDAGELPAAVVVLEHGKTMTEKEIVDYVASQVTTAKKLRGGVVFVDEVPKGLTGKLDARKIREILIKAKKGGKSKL", "assay": "inhibition of purified Photinus pyralis luciferase – biochemical, luminescence, dose response (AID 1891)"}, "[10]": {"assay": "NIH3T3 cell viability loss – ATP luminescence, mouse fibroblasts, counter-screen, dose response (AID 2010);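 note: cells exposed to compound for about 90 hours before reading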", "type": "functional, cell-based"}, "[11]": {"assay": "Trypanosoma cruzi growth suppression in host cells – NIH3T3 host cells, beta-gal luminescence, confirmation (AID 2044);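 note: intracellular parasites grown in NIH/3T3 mouse fibroblasts as host cells; luminescent beta-galactosidase reporter signal from transgenic T. cruzi replicating inside host cells; inhibitors lower the luminescence signal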", "type": "functional, cell-based"}, "[12]": {"target": "T2, Heat shock factor protein 1 (Mus musculus, UniProt P38532)", "T2 sequence (P38532 whole entry)": "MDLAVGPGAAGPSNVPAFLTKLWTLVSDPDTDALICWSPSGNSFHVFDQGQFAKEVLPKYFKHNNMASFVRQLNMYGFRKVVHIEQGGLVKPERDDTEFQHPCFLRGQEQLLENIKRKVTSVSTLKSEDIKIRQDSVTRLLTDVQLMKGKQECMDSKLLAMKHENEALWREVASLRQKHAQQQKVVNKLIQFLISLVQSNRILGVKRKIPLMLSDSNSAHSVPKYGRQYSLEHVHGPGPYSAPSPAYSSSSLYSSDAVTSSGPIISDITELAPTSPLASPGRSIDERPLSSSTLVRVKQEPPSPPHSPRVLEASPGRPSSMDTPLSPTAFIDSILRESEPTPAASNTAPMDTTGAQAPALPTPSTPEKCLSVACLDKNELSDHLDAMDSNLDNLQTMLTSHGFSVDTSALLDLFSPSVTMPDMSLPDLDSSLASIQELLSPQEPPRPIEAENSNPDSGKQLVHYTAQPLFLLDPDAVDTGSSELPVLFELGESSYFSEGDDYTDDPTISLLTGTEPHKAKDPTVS", "assay": "decrease of HSF1-responsive luciferase luminescence – cell-based, NIH3T3, dose retest, confirmation (AID 2382);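 note: NIH3T3 fibroblasts with HSF1-driven luciferase reporter stressed by proteasome inhibitor MG132; luminescence from HSF1-driven luciferase expression after 8 hours of MG132 stress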", "type": "functional"}, "[13]": {"assay": "alpha-synuclein stem-loop luciferase translation blockers – H4 neuroglioma cells, luminescence, confirmation (AID 1988)", "type": "functional, cell-based"}, "[14]": {"assay": "luciferase reporter signal suppression in cells – H4 neuroglioma cells, luminescence, dose response (AID 1990)", "type": "functional, cell-based"}, "[15]": {"assay": "Luminescence Cell-Based Dose Response HTS to Identify Inhibitors of 5'UTR Stem-Loop Driven Prion Protein mRNA Translation in H4 Neuroglioblastoma Cells. [Related pubchem assays: 1827 (Project Summary), 1813 (Primary HTS)]", "type": "functional"}, "[16]": {"target": "Mitogen-activated protein kinase 10 (Homo sapiens, UniProt P53779)", "sequence (P53779 whole entry)": "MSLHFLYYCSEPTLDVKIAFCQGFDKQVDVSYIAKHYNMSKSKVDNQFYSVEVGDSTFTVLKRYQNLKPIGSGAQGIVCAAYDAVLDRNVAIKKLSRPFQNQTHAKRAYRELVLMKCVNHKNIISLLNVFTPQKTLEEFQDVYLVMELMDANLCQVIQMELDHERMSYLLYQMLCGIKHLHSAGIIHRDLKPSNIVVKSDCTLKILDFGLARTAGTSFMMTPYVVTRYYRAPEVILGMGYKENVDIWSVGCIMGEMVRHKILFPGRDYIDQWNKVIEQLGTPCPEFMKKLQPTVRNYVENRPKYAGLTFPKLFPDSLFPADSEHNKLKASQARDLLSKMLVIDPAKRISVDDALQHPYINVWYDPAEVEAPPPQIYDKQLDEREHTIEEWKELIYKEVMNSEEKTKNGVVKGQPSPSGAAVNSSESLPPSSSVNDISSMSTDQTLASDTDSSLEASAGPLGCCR", "assay": "Dose response biochemical screening assay for inhibitors of c-Jun N-Terminal Kinase 3 (JNK3). [Related pubchem assays: 746 ]"}, "[17]": {"target": "T3, DNA repair protein RAD52 homolog (Homo sapiens, UniProt P43351)", "T3 sequence (P43351 whole entry)": "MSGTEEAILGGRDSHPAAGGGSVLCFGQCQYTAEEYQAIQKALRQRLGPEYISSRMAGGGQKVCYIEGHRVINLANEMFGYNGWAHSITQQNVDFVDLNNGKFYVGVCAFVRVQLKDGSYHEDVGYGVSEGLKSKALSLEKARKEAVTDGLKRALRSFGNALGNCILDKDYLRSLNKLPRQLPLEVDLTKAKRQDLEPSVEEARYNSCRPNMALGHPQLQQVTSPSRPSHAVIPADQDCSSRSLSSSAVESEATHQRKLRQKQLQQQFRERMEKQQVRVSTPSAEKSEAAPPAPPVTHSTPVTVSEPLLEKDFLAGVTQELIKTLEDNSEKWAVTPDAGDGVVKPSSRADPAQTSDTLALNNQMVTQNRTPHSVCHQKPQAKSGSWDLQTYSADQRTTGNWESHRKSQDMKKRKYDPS", "type": "functional, biochemical"}},
  "note": "Active and inactive are the calls of the source.",
  "data": [
    {"smiles": "CNS(=O)(=O)c1ccc2nc(NC(=O)/C=C/c3ccco3)sc2c1", "values": [
      {"measurement": "IC50", "setting": "[1]", "result": "> 79 µM (inactive)"}
    ]},
    {"smiles": "CC(=O)c1cccc(NC(=O)Nc2ccc(C(=O)N3CCOCC3)cc2)c1", "values": [
      {"measurement": "AC50", "setting": "[2]", "result": "31.8 µM (active)"}
    ]},
    {"smiles": "Cc1ccc(N/C=C2/C(=O)N(c3nccs3)C(=O)c3ccccc32)c(C)c1", "values": [
      {"measurement": "EC50", "setting": "[3]", "result": "> 99 µM (inactive)"},
      {"measurement": "EC50", "setting": "[4]", "result": "> 99 µM (inactive)"}
    ]},
    {"smiles": "CCc1cc(=O)oc2c(C)c(OCC(=O)NC3CC(C)(C)NC(C)(C)C3)ccc12", "values": [
      {"measurement": "IC50", "setting": "[5]", "result": "35.9 µM (inactive)"},
      {"measurement": "EC50", "setting": "[6]", "result": "> 112 µM (not active)"},
      {"measurement": "IC50", "setting": "[7]", "result": "35.9 µM (inactive)"},
      {"measurement": "IC50", "setting": "[8]", "result": "1.82 µM (active)"},
      {"measurement": "EC50", "setting": "[9]", "result": "> 112 µM (not active)"}
    ]},
    {"smiles": "Cc1ccccc1Nc1nc(-c2cccnc2)nc2ccccc12", "values": [
      {"measurement": "IC50", "setting": "[5]", "result": "24.9 µM (inactive)"},
      {"measurement": "IC50", "setting": "[7]", "result": "15.5 µM (inactive)"},
      {"measurement": "IC50", "setting": "[8]", "result": "12.6 µM (inactive)"},
      {"measurement": "EC50", "setting": "[10]", "result": "> 60 µM (inconclusive)"},
      {"measurement": "EC50", "setting": "[11]", "result": "0.741 µM (active)"}
    ]},
    {"smiles": "Cc1c(C(=O)C2=C(O)C(=O)N(CCN3CCOCC3)C2c2ccccn2)cnn1-c1ccccc1", "note": "(centres undefined)", "values": [
      {"measurement": "EC50", "setting": "[12]", "result": "1.29 µM (active)"},
      {"measurement": "AC50", "setting": "[2]", "result": "2.31 µM (active)"}
    ]},
    {"smiles": "CCN(CC)c1ccc(C(=O)NNC(=O)CCc2nc(O)c3ccccc3n2)cc1", "values": [
      {"measurement": "IC50", "setting": "[1]", "result": "18 µM (active)"}
    ]},
    {"smiles": "Cn1c(/C=C/c2ccccc2[N+](=O)[O-])nc2ccccc2c1=O", "values": [
      {"measurement": "EC50", "setting": "[3]", "result": "> 99 µM (inactive)"},
      {"measurement": "EC50", "setting": "[4]", "result": "> 99 µM (inactive)"}
    ]},
    {"smiles": "COCCn1c(C)cc(C(=O)COC(=O)c2[nH]nc3ccccc23)c1C", "values": [
      {"measurement": "EC50", "setting": "[13]", "result": "1.58 µM (active)"},
      {"measurement": "EC50", "setting": "[14]", "result": "4.23 µM (inconclusive)"},
      {"measurement": "EC50", "setting": "[15]", "result": "4.02 µM (active)"},
      {"measurement": "AC50", "setting": "[2]", "result": "2.08 µM (active)"}
    ]},
    {"smiles": "CCCc1cc(=O)oc2cc(C)cc(OCC(=O)Nc3ccccn3)c12", "values": [
      {"measurement": "IC50", "setting": "[5]", "result": "35.9 µM (inactive)"},
      {"measurement": "IC50", "setting": "[7]", "result": "3.99 µM (active)"},
      {"measurement": "IC50", "setting": "[8]", "result": "0.802 µM (active)"}
    ]},
    {"smiles": "COc1ccccc1Nc1nc2ccc(C)cc2cc1C#N", "values": [
      {"measurement": "EC50", "setting": "[3]", "result": "> 99 µM (inactive)"},
      {"measurement": "EC50", "setting": "[4]", "result": "58.3 µM (inactive)"}
    ]},
    {"smiles": "CC1=CC(=C2C(=O)c3ccccc3C2=O)C=C(C)N1Cc1ccco1", "values": [
      {"measurement": "IC50", "setting": "[16]", "result": "22.9 µM (not active)"}
    ]},
    {"smiles": "CCOc1ccc(OCc2cccc(C(=O)N3CCCC3)c2)cc1", "values": [
      {"measurement": "AC50", "setting": "[2]", "result": "4.43 µM (active)"}
    ]},
    {"smiles": "COc1ccc(C(=O)NCc2cn3c(C)csc3n2)cc1OC", "values": [
      {"measurement": "IC50", "setting": "[16]", "result": "> 31 µM (not active)"}
    ]},
    {"smiles": "CCC1S/C(=C(\\C#N)C(N)=O)N(c2ccc(F)cc2)C1=O", "note": "(centres undefined)", "values": [
      {"measurement": "IC50", "setting": "[16]", "result": "32.6 µM (not active)"}
    ]},
    {"smiles": "OC(CN1CCCCC1)Cn1c2ccccc2c2cc(Br)ccc21", "note": "(centres undefined)", "values": [
      {"measurement": "AC50", "setting": "[17]", "result": "19 µM (active)"}
    ]},
    {"smiles": "Cc1cc(C)c2sc(N(CCCN(C)C)C(=O)CN3C(=O)c4ccccc4C3=O)nc2c1", "values": [
      {"measurement": "AC50", "setting": "[17]", "result": "9.02 µM (active)"}
    ]}
  ]
}
